From US20100069632A1, “SALTS OF PYRROLOPYRIMIDINONE DERIVATIVES AND PROCESS FOR PREPARING THE SAME” (SK CHEMICALS CO., LTD, priority 2006, published 2010)
Structures can show the parent of a compound that is named as a salt.

Legend:
[1] = Hygroscopicity; type: physicochemical; conditions: statement in words, no test described
[2] = Photostability test (UV and visible light), impurity content and color change; type: physicochemical; conditions: for Color change, Initial / Impurity content (%), Initial: photostability test; for Photostability against UV and visible light compared with the SK-3530 dihydrochloride salt: summary of Tables 4 and 5; for Color change, UV / Impurity content (%), UV: total UV radiation 200 W·h/m^2; for Color change, UV / Impurity content (%), UV / Color change, Visible / Impurity content (%), Visible: 25° C., 60% humidity; for Impurity content (%), UV / Impurity content (%), Visible: Petri dish; for Color change, Visible / Impurity content (%), Visible: total visible light radiation 1080 klux/m^2h
Procedure: The following Table 4 and Table 5 show the photostability test result for dihydrochloride salt (2HCl), gentisate, maleate, citrate, fumarate and hemitartrate salts of SK-3530. The total ultraviolet (UV) radiation was 200 W·h/m^2 and the total visible light radiation was 1080 klux/m^2h. Each salt was kept on a Petri dish under the condition of 25° C. and 60% humidity.

[3] = Thermal stability test at 105° C., impurity content and color change; type: physicochemical; conditions: for Impurity content (%), 3 hours / Color change, 3 hours / Impurity content (%), 48 hours / Color change, 48 hours: dryer at 105° C.; for Color change, 3 hours / Color change, 48 hours: macroscopic observation; for Thermal stability compared with the SK-3530 dihydrochloride salt: summary of Tables 6 and 7; for Color change, Initial / Impurity content (%), Initial: thermal stability test
Procedure: The following Table 6 and Table 7 show the thermal stability test result for dihydrochloride salt (2HCl), gentisate, maleate, citrate, fumarate and hemitartrate salts of SK-3530. Each salt was placed on a Petri dish and kept in a dryer at 105° C. Following macroscopic observation at 3 hours and 48 hours later, the content of impurities was measured with liquid chromatography.

[4] = Water and atmospheric (storage) stability: total impurities by liquid chromatography after storage; type: physicochemical; conditions: for Storage stability compared with the SK-3530 dihydrochloride salt: summary of Tables 1 to 3
Procedure: This test is for confirming the storage stability of SK-3530 salt.
A sufficient stability is required to process a drug into a particular medication form. For instance, preparation into tablet or capsule requires atmospheric stability and preparation into injection may require water stability.
The following Table 1 (25° C., 75% humidity), Table 2 (40° C., 60% humidity) and Table 3 (50° C., 75% humidity) show the content of total impurities measured by liquid chromatography after storing dihydrochloride (2HCl), gentisate, maleate, citrate, fumarate and hemitartrate salts of SK-3530 for 1 week and 3 weeks.

[5] = Solubility; type: physicochemical; conditions: statement in words, no test described
[6] = molecular target: PDE-5 (Homo sapiens, UniProt O76074); conditions: statement in words; cited from earlier work

Hygroscopicity [1]	Color change, Initial [2]	Impurity content (%), Initial [2]	Color change, UV [2]	Impurity content (%), UV [2]	Color change, Visible [2]	Impurity content (%), Visible [2]	Impurity content (%), 3 hours [3]	Color change, 3 hours [3]	Impurity content (%), 48 hours [3]	Color change, 48 hours [3]	Color change, Initial [3]	Impurity content (%), Initial [3]	Impurity content (%) at 25° C., 75% humidity, 1 week [4]	Impurity content (%) at 25° C., 75% humidity, 3 weeks [4]	Impurity content (%) at 25° C., 75% humidity, Initial [4]	Impurity content (%) at 40° C., 60% humidity, 1 week [4]	Impurity content (%) at 40° C., 60% humidity, 3 weeks [4]	Impurity content (%) at 40° C., 60% humidity, Initial [4]	Impurity content (%) at 50° C., 75% humidity, 1 week [4]	Compound	also measured
non-hygroscopic	White	0.12%	White	0.37%	White	0.14%	0.30%	White	1.81%	White	White	0.12%	0.15%	0.15%	0.12%	0.13%	0.14%	0.12%	0.14%	CCCOc1ccc(S(=O)(=O)N2CCN(CCO)CC2)cc1-c1nc2c(CCC)cn(CC)c2c(=O)[nH]1 [SK-3530 citrate salt]	Photostability against UV and visible light compared with the SK-3530 dihydrochloride salt [2]: much superior; Thermal stability compared with the SK-3530 dihydrochloride salt [3]: much superior; Impurity content (%) at 50° C., 75% humidity, 3 weeks [4]: 0.14%; Impurity content (%) at 50° C., 75% humidity, Initial [4]: 0.12%; Storage stability compared with the SK-3530 dihydrochloride salt [4]: much superior
non-hygroscopic	White	0.12%	White	0.35%	White	0.14%	0.15%	White	0.74%	White	White	0.12%	0.12%	0.12%	0.12%	0.12%	0.12%	0.12%	0.15%	CCCOc1ccc(S(=O)(=O)N2CCN(CCO)CC2)cc1-c1nc2c(CCC)cn(CC)c2c(=O)[nH]1 [SK-3530 maleate salt]	Photostability against UV and visible light compared with the SK-3530 dihydrochloride salt [2]: much superior; Thermal stability compared with the SK-3530 dihydrochloride salt [3]: much superior; Impurity content (%) at 50° C., 75% humidity, 3 weeks [4]: 0.19%; Impurity content (%) at 50° C., 75% humidity, Initial [4]: 0.12%; Storage stability compared with the SK-3530 dihydrochloride salt [4]: much superior
non-hygroscopic	White	0.02%	Pale yellow	0.08%	White	0.07%	0.11%	White	0.61%	White	White	0.02%	0.02%	0.03%	0.02%	0.02%	0.05%	0.02%	0.02%	CCCOc1ccc(S(=O)(=O)N2CCN(CCO)CC2)cc1-c1nc2c(CCC)cn(CC)c2c(=O)[nH]1 [SK-3530 fumarate salt]	Photostability against UV and visible light compared with the SK-3530 dihydrochloride salt [2]: much superior; Thermal stability compared with the SK-3530 dihydrochloride salt [3]: much superior; Impurity content (%) at 50° C., 75% humidity, 3 weeks [4]: 0.05%; Impurity content (%) at 50° C., 75% humidity, Initial [4]: 0.02%; Storage stability compared with the SK-3530 dihydrochloride salt [4]: much superior
hygroscopic	White	0.20%	Brown	5.92%	Yellow	1.37%	3.06%	White	14.37%	Yellow	White	0.20%	0.24%	0.31%	0.20%	0.24%	0.38%	0.20%	0.27%	CCCOc1ccc(S(=O)(=O)N2CCN(CCO)CC2)cc1-c1nc2c(CCC)cn(CC)c2c(=O)[nH]1.Cl.Cl [SK-3530 dihydrochloride salt, reference compound]	Solubility [5]: good solubility; Impurity content (%) at 50° C., 75% humidity, 3 weeks [4]: 0.42%; Impurity content (%) at 50° C., 75% humidity, Initial [4]: 0.20%
non-hygroscopic	White	0.07%	White	0.52%	White	0.21%	0.14%	White	0.70%	White	White	0.07%	0.09%	0.13%	0.07%	0.10%	0.14%	0.07%	0.11%	CCCOc1ccc(S(=O)(=O)N2CCN(CCO)CC2)cc1-c1nc2c(CCC)cn(CC)c2c(=O)[nH]1 [SK-3530 hemitartrate salt]	Photostability against UV and visible light compared with the SK-3530 dihydrochloride salt [2]: much superior; Thermal stability compared with the SK-3530 dihydrochloride salt [3]: much superior; Impurity content (%) at 50° C., 75% humidity, 3 weeks [4]: 0.13%; Impurity content (%) at 50° C., 75% humidity, Initial [4]: 0.07%; Storage stability compared with the SK-3530 dihydrochloride salt [4]: much superior
																				CCCOc1ccc(S(=O)(=O)N2CCN(CCO)CC2)cc1-c1nc2c(CCC)cn(CC)c2c(=O)[nH]1 [SK-3530, 5-ethyl-2-{5-[4-(2-hydroxyethyl)piperazin-1-ylsulfonyl]-2-n-propoxyphenyl}-7-n-propyl-I-3,5-dihydro-4H-pyrrolo[3,2-d]pyrimidin-4-one]	Selectivity for PDE-5 over other PDEs [6]: excellent selective inhibitor
non-hygroscopic	White	0.09%	Pale yellow	0.36%	Pale yellow	0.17%	0.09%	White	0.13%	White	White	0.09%	0.09%	0.12%	0.09%	0.10%	0.10%	0.09%	0.09%	CCCOc1ccc(S(=O)(=O)N2CCN(CCO)CC2)cc1-c1nc2c(CCC)cn(CC)c2c(=O)[nH]1 [SK-3530 gentisate salt]	Photostability against UV and visible light compared with the SK-3530 dihydrochloride salt [2]: much superior; Thermal stability compared with the SK-3530 dihydrochloride salt [3]: much superior; Impurity content (%) at 50° C., 75% humidity, 3 weeks [4]: 0.10%; Impurity content (%) at 50° C., 75% humidity, Initial [4]: 0.09%; Storage stability compared with the SK-3530 dihydrochloride salt [4]: much superior
